Experimental data: patent EP4800036A1, “ANTIBODY OR TROP2 ANTIGEN BINDING FRAGMENT BINDING TO TROP2, ANTI-TROP2 CAR, AND USE” (priority 2023, dated 2025)

T1: Human TROP-2/TACSTD2 Protein, His Tag (ACRO, catalog No. TR2-H5223) (human, UniProt P09758 27-274)
T1 construct: extracellular domain; Bought protein; also called Trop2-His; Trop2-His antigen; not shown: His tag
T1 sequence (looked up): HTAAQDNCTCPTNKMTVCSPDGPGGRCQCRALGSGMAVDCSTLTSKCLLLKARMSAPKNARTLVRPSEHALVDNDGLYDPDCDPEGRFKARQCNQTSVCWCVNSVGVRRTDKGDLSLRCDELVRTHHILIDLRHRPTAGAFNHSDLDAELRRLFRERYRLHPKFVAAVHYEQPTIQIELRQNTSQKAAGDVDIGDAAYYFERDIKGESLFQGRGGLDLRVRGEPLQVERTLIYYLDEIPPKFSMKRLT


Tests used:
[1] = system: triple-negative breast cancer; conditions: third-line treatment; cited from earlier work
NSCLC = conditions: 44 patients with NSCLC; cited from earlier work
small cell lung cancer = conditions: 50 patients with small cell lung cancer; cited from earlier work
advanced NSCLC = conditions: patients with advanced NSCLC; cited from earlier work
[2] = target: T1, Human TROP-2/TACSTD2 Protein, His Tag …; assay: phage ELISA, Trop2-His coated at 1 µg/mL, anti-M13-HRP detection

Molecule	disease control rate [1]	patients who experienced tumor shrinkage at least once [1]	progression-free survival (PFS) rate [1]	PFS (NSCLC)	clinical benefit rate (complete response + partial response + stable disease ≥ 4 months) (NSCLC)	objective response rate (ORR) (NSCLC)	ORR (small cell lung cancer)	PFS (small cell lung cancer)	clinical benefit rate (complete response + partial response + stable disease ≥ 4 months) (small cell lung cancer)	overall survival (advanced NSCLC)	binding result [2]
Sacituzumab govitecan [IMMU-132]	45%	74%	33.3%	5.2 months	43%	19%	14%	3.7 months	34%	9.5 months	
anti-Trop2 positive clone 3 (T3), phage scFv (scFv, also called T3 clone; T3 anti-Trop2 scFv) scFv: DIQMTQSPSTLSASVGDRVTITCRASQSISSWLAWYQQKPGKAPKLLIYKASSLESGVPPRFSGSGSGAEFTLTISSLQPDDFATYYCQQYNSYPLTFGGGTKVEVKGGGGSGGGGSGGGGSEVQLVQSGGGLVQPGGSLRLSCEDSGFTFSSYWMSWVRQAPGKGLEWVSSISSSSSYIYYADSVKGRFTISRDNAKNSLYLQMNSLRGEDTAVYYCAREQSSSGFDYWGQGTLVTVSS											binds
